Like-named read-outs stand apart in the source and are kept apart here.
What was measured:
Isospora suis [1] = details: experimentally infected piglets; cited from earlier work
[2] = system: Eimeria spp. (principal species E. ovinoidalis and E. crandallis); test: Field trial, treatment of natural coccidiosis infections of grazing lambs; assay type: in vivo, Sheep; details: 5% w/v suspension as drench on day 7; toltrazuril 20 mg/kg, ponazuril 10 and 20 mg/kg; low infection pressure
Experimental: B. Field Trial of the Efficacy of Ponazuril Compared with Toltrazuril for the Treatment of Natural Infections of Grazing Lambs with Coccidiosis:
The aim of the trials was to compare toltrazuril and ponazuril for efficacy on natural infections with pathogens of the Eimeria family.
The active ingredients were compared in three consecutive experiments: • Experiment 1: untreated control—toltrazuril 20 mg/kg—ponazuril 20 mg/kg • Experiment 2: untreated control—ponazuril 20 mg/kg • Experiment 3: untreated control—toltrazuril 20 mg/kg—ponazuril 10 mg/kg.
The oocyst excretion and the consistency of the faeces were used as main parameters. The weight of the stock was likewise checked occasionally.

[3] = in vivo
Experimental: (§1) The following toxicity data were determined in accordance with OECD/GLP guidelines, in particular OECD 414, 401 and 408. The investigations of the teratogenicity of the compounds was carried out in accordance with the US guidelines—“Teratogenicity study”, Guidelines for Registering Pesticides in the U.S.A., U.S. Environmental Protection Agency, Hazard Evaluation: Human and 10 Domestic Animals. U.S. Federal Register, Vol. 43, paragraph 163.83-3, adopted November 1982.

[4] = Acute oral toxicity (LD50 rat, oral); assay type: in vivo; details: for NOEL: LD50 rat, oral investigation; for LD50 rat, oral: printed in column Dosage (NOEL)
Experimental: as §1

[5] = system: Eimeria tenella, E. maxima and E. acervulina; test: Efficacy of ponazuril on artificially induced mixed infection of chickens, cage housing; assay type: in vivo
Experimental: Groups each of 44 birds (4 replicates per treatment of 11 birds in each case) were formed and, on day 14, infected with sporulated oocysts. Ponazuril was administered each day on day 10-24 or 17-24. Three dosages in the feed were used in both treatment periods: 5 ppm, 10 ppm and 20 ppm. The result of the treatment was determined by various clinical and parasitological parameters, including the mortality caused by the coccidiosis and the oocyst excretion in the faeces.

Isospora suis [6] = details: coccidiosis (Isospora suis) in pigs; cited from earlier work

Structure (SMILES)	prevention of disease (Isospora suis [1])	efficacy (oocyst excretion, consistency of the faeces) [2]	NOEL ([3]; dog)	NOEL ([3]; rabbit)	NOEL ([3]; rat)	NOEL ([3]; rat, 90 days)	NOEL [4]	LD50 rat, oral [4]	other results
CCCc1ncc(C[n+]2ccccc2C)c(N)n1 [amprolium]	not possible to prevent disease								
O=C1OCCN1/N=C/c1ccc([N+](=O)[O-])o1 [furazolidone]	not possible to prevent disease								
CC[C@@]1([C@@H]2O[C@@H]([C@H]3O[C@@](O)(CO)[C@H](C)C[C@@H]3C)C[C@@H]2C)CC[C@H]([C@]2(C)CC[C@]3(C[C@H](O)[C@@H](C)[C@@H]([C@@H](C)[C@@H](OC)[C@H](C)C(=O)O)O3)O2)O1 [monensin]	not possible to prevent disease								
Cc1cc(-n2c(=O)[nH]c(=O)n(C)c2=O)ccc1Oc1ccc(S(=O)(=O)C(F)(F)F)cc1 [ponazuril]		completely effective	8.3 mg/kg of body weight	30 mg/kg of body weight	90 mg/kg of body weight	11.2 mg/kg of body weight	5000 mg/kg of body weight	>5000 mg/kg of body weight	control of the infection ([5]; 5, 10 and 20 ppm in the feed, daily on day 10-24 or 17-24, infection day 14): possible to control the infection with all dosages and treatment schedules; parasitological findings (oocyst excretion and number of lesions) ([5]; early start of the treatment): reduced the parasitological findings significantly; technical parameters (body weight gain and feed conversion) ([5]; early start of the treatment): improved the technical parameters; dosage with best results ([5]; highest dosage, 20 mg of ponazuril in the feed (approx. 3.5 mg/kg of body weight and day)): best results
Cc1cc(-n2c(=O)[nH]c(=O)n(C)c2=O)ccc1Oc1ccc(SC(F)(F)F)cc1 [toltrazuril]		completely effective	1.5 mg/kg of body weight	2.0 mg/kg of body weight	1.0 mg/kg of body weight	1.1 mg/kg of body weight	<1000 mg/kg of body weight	1600-5000 mg/kg mg/kg of body weight	suitability for treating coccidiosis (Isospora suis [6]): suitable for treating coccidiosis

Source: patent publication US7915257B2, “Use of triazinetrione sulfones for combating coccidiosis” (Bayer Animal Health GmbH, priority 2000, dated 2011)
